The values below come from the supplement of paper PMC4862054.

Assay in all cases: drug sensitivity score (DSS), CellTiter-Blue viability (DSS (AUC-based score)); higher = stronger viability inhibition; extreme values may be limits of the assay
Conditions in all cases: incubation time: 72 h

Test [1] deals with CAL-120. The method, then:
(§1)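 DSRT with the CellTiter-Blue (resazurin reduction) viability readout, fluorescence 560/590 nm, 72 h incubation. Plates were normalised to DMSO and benzethonium chloride controls. DSS is computed from the area under the fitted dose-response curve (5 or 9 concentrations).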

Test [2] concerns CAL-51. Here is the method:
as §1

The subject of test [3] is CAL-85-1. The method, then:
as §1

Test [4] has as its system HCC1143. Here is the method:
as §1

Test [5] has as its system HCC1937. The method, then: as §1
The test system of test [6] is Hs578T. The method, then: as §1
For test [7], the system named is MDA-MB-436. The method, then: as §1
For test [8], the system named is MDA-MB-453. Here is the method: as §1
In test [9] the test system is MDA-MB-468. Here is the method: as §1
The subject of test [10] is MFM-223. Here is the method: as §1

For the molecule `C[C@@]1(C(=O)Nc2ccc(F)nc2)CCCN1c1nc(Nc2cc(C3CC3)n[nH]2)c2cccn2n1`, the drug sensitivity score in test [1] was found to be 8.33; in test [2], 9.17; in [3], 10.6; in test [4] it was 9.58; in test [5], 6.32; in [6], 5.68. The drug sensitivity score was 2.82 in test [7], 5.98 in test [8], 7.88 in test [9] and 10.1 in [10].
For the molecule `c1ccc(C2CN3CCSC3=N2)cc1` (stereo not given) [Tetramisole], the drug sensitivity score in [1], in test [2], in test [3], in test [4], in test [5] and in test [6] was 0 in each case. Moreover, the drug sensitivity score in test [7], in test [8], in [9] and in test [10] was 0 throughout.
In the case of `CCCC(CCC)C(=O)O` [Valproic acid], the drug sensitivity score in test [1], in test [2], in [3], in test [4], in test [5] and in [6] was 0 each time. The drug sensitivity score in [7], in test [8], in test [9] and in [10] was 0 each time.
As for `Cn1cnc2c(F)c(Nc3ccc(Br)cc3F)c(C(=O)NOCCO)cc21` [MEK-162], the drug sensitivity score in test [1] was found to be 0; in [2], 0.246; in [3], 0; in [4], 7.86; in [5] it was 0; in test [6] it was 0. Also, the drug sensitivity score in test [7], in test [8], in test [9] and in test [10] was 0 each time.
`C[C@@H]1C=C2C(=O)O[C@@H]3CC[C@H](C1)[C@]23O` [Galiellalactone]: the drug sensitivity score in test [1] was 0; in test [2], 0.94; in [3], 9.4; in test [4], 0; in test [5] it was 5.76; in test [6] it was 0.961. The drug sensitivity score in [7] stood at 6.26; in test [8], 8.97; in test [9], 6.59; in test [10] it was 2.28.
